{"source": "patent US9907795B2", "about": "“Method of treatment of chronic cough administering orvepitant in combination with other therapeutic agents” (NeRRe Therapeutics Limited, priority 2016, dated 2018)", "format_in_all_cases": "in vivo, human", "key": {"[1]": {"tested_on": "patients with a diagnosis of chronic treatment-refractory cough", "assay": "Objective cough frequency by ambulatory cough monitor, open-label pilot study", "conditions": "for daytime objective cough frequency, mean change from Baseline: Week 4 (end of treatment) vs Baseline, 30 mg once daily, p<0.001, primary endpoint", "description": "(§1) Orvepitant maleate Form 1 was evaluated in an open-label pilot study to determine the efficacy of multiple dosing in male and female patients with a diagnosis of chronic treatment-refractory cough for over 3 months. The study was a single-arm (30 mg orvepitant maleate Form 1 once daily), 4-week study with a 4 week follow-up. There were five scheduled clinic visits; Screening visit, Baseline visit, Week 1 visit, Week 4 visit (end of treatment period) and a Week 8 Follow-up visit. The following instruments were used to assess efficacy: • Subjects were fitted with an ambulatory cough monitor (ACM) to record objective cough frequency over 24 hours at Screening, Weeks 1, 4 and 8 • Cough-specific Quality of Life Questionnaire (CQLQ): Subjects were asked to complete this questionnaire at Screening, Weeks 1, 4 and 8 • Global Rating of Change for Cough Frequency & Severity Scale: Subjects were asked to complete this scale at Weeks 1, 4 and 8 • Cough Severity VAS: Subjects were issued with diaries for daily recording of Cough Severity VAS scores. 13 subjects were enrolled into the study and provided data on cough frequency, Cough QOL, Global Rating of Change for Cough Frequency and Severity, and Cough Severity VAS, but one of the 13 subjects had data missing on cough frequency (day and night) at week 4. The primary endpoint was change in objective daytime cough frequency at the end of the treatment period at Week 4 compared to Baseline."}, "[2]": {"tested_on": "patients with a diagnosis of chronic treatment-refractory cough", "assay": "Cough Severity VAS (daily diary), open-label pilot study", "description": "as §1, with “4.” for “4. The primary endpoint was change in objective daytime cough frequency at the end of the treatment period at Week 4 compared to Baseline.”"}, "[3]": {"tested_on": "patients with a diagnosis of chronic treatment-refractory cough", "assay": "Cough-specific Quality of Life Questionnaire (CQLQ), open-label pilot study", "description": "as §1, with “4.” for “4. The primary endpoint was change in objective daytime cough frequency at the end of the treatment period at Week 4 compared to Baseline.”"}, "[4]": {"tested_on": "patients with a diagnosis of chronic treatment-refractory cough", "assay": "Global Rating of Change for Cough Frequency & Severity Scale, open-label pilot study", "description": "as §1, with “4.” for “4. The primary endpoint was change in objective daytime cough frequency at the end of the treatment period at Week 4 compared to Baseline.”"}}, "note": "Structures can show the parent of a compound that is named as a salt."}
{"smiles": "Cc1cc(F)ccc1[C@H]1C[C@@H](N2CCN3C(=O)CC[C@H]3C2)CCN1C(=O)N(C)[C@H](C)c1cc(C(F)(F)F)cc(C(F)(F)F)c1", "note": "[Orvepitant maleate Form 1, 2-(R)-(4-Fluoro-2-methyl-phenyl)-4-(S)-((8aS)-6-oxo-hexahydro-pyrrolo[1,2-α]-pyrazin-2-yl)-piperidine-1-carboxylic acid [1-(R)-(3,5-bis-trifluoromethyl-phenyl)-ethyl]-methylamide maleate]", "values": [{"measurement": "reduction in mean night-time objective cough frequency", "setting": "[1]; Week 1 vs Baseline, p=0.19", "result": "no significant reduction"}, {"measurement": "daytime objective cough frequency, mean change from Baseline", "setting": "[1]; negative binomial regression model", "result": "−18.9", "unit": "coughs/hr"}, {"measurement": "daytime objective cough frequency, mean change from Baseline", "setting": "[1]", "result": "−26", "unit": "%"}, {"measurement": "reduction in mean night-time objective cough frequency", "setting": "[1]; Week 4 vs Baseline, p=0.65", "result": "no significant reduction"}, {"measurement": "change in daytime objective cough frequency", "setting": "[1]; Week 8 compared to Week 4, p=0.86", "result": "no significant change"}, {"measurement": "reduction in mean night-time objective cough frequency", "setting": "[1]; between Weeks 4 and 8, p=0.10", "result": "no significant reduction"}, {"measurement": "night-time cough severity VAS, average change from Baseline", "setting": "[2]; Week 1 of study, p=0.01", "result": "−14", "unit": "%"}, {"measurement": "daytime cough severity VAS, average change from Baseline", "setting": "[2]; Week 2 of study, p=0.002", "result": "−39", "unit": "%"}, {"measurement": "daytime cough severity VAS, average change from Baseline", "setting": "[2]; Week 6 of study, p=0.001", "result": "−14", "unit": "%"}, {"measurement": "night-time cough severity VAS, average change from Baseline", "setting": "[2]; Week 6 of study, p=0.017", "result": "−18", "unit": "%"}, {"measurement": "CQLQ Overall score, mean change from Baseline", "setting": "[3]; Week 1, p<0.001", "result": "−4.0"}, {"measurement": "CQLQ Overall score, mean change from Baseline", "setting": "[3]; Week 4, p=0.005", "result": "−4.4"}, {"measurement": "CQLQ Overall score, mean change from Baseline", "setting": "[3]; Week 8, p=0.033", "result": "−3.4"}, {"measurement": "CQLQ Extreme Physical domain, change from Baseline", "setting": "[3]; Weeks 1, 4 and 8", "result": "significant changes from Baseline"}, {"measurement": "CQLQ Psychosocial domain, change from Baseline", "setting": "[3]; Weeks 1, 4 and 8", "result": "significant changes from Baseline"}, {"measurement": "CQLQ Overall score, difference", "setting": "[3]; between Weeks 4 and 8, p=0.52", "result": "no significant difference"}, {"measurement": "CQLQ, any of the domains, change", "setting": "[3]; from Week 4 to Week 8", "result": "no significant changes"}, {"measurement": "CQLQ Emotional domain, change", "setting": "[3]; in vivo", "result": "No significant changes"}, {"measurement": "Global Rate of Change, cough frequency: subjects who felt worse", "setting": "[4]; Week 1", "result": "No subjects felt worse"}, {"measurement": "Global Rate of Change, cough severity: subjects who felt worse", "setting": "[4]; Week 1", "result": "No subjects felt worse"}, {"measurement": "Global Rate of Change, cough frequency: median improvement score", "setting": "[4]; Week 1, 3 = somewhat better", "result": 3}, {"measurement": "Global Rate of Change, cough severity: median improvement score", "setting": "[4]; Week 1, 4 = moderately better", "result": 4}, {"measurement": "Global Rate of Change, cough frequency: subjects who felt worse", "setting": "[4]; Week 4", "result": "No subjects felt worse"}, {"measurement": "Global Rate of Change, cough severity: subjects who felt worse", "setting": "[4]; Week 4", "result": "No subjects felt worse"}, {"measurement": "Global Rate of Change, cough frequency: median improvement score", "setting": "[4]; Week 4, 3 = somewhat better", "result": 3}, {"measurement": "Global Rate of Change, cough severity: median improvement score", "setting": "[4]; Week 4, 3 = somewhat better", "result": 3}]}
